{
  "source": "patent US11413239B2",
  "about": "“Pharmaceutical composition of tapentadol for nasal administration” (Torrent Pharmaceuticals Ltd., priority 2011, dated 2022)",
  "key": {"[1]": {"experiment": "Crystal formation in concentrated tapentadol solution on storage", "format": "physicochemical", "conditions": "increased concentration of tapentadol in solution, stored for more than 3 days", "from_the_text": "This makes the formulation non-homogeneous and therefore non-suitable for nasal administration. This crystal growth may further leads to altered therapeutic effect of the drug. Present invention overcomes this problem by providing a composition, wherein no such crystal growth is observed in the composition comprising high concentration of drug, when stored for longer duration."}, "[2]": {"conditions": "cited from earlier work"}},
  "data": [
    {"smiles": "CC[C@@H](c1cccc(O)c1)[C@@H](C)CN(C)C.Cl", "note": "[Tapentadol, 3-[(1R,2R)-3-(dimethylamino)-1-ethyl-2-methylpropyl]phenol]", "values": [
      {"measurement": "crystal formation on storage", "setting": "[1]", "result": "formation of crystals"},
      {"measurement": "clearance", "setting": "[2]; Eur. J. Drug Met and Pharmacokinetics 2007, 32, 163-169", "result": "1468.+−.122 mL/min"},
      {"measurement": "time of maximum serum concentration", "setting": "[2]; after oral dosing", "result": "around 1.25 hours"},
      {"measurement": "parent compound metabolized", "setting": "[2]; given orally", "result": "About 97%"},
      {"measurement": "time to absorb after administration", "setting": "[2]; oral formulations", "result": "at least 45 minutes"}
    ]}
  ]
}
